Reference: PubChem BioAssay (NCI)
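Test compounds were applied to cells in 96-well plates for 48 hours at 5 doses. GI50 is the concentration that inhibits growth by half. The concentration for full growth arrest is given as TGI.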

Columns and labels:
Assay in all cases: inhibition of tumour cell growth, NCI panel, 48 h
[1] = system: SK-MEL-28 melanoma
[2] = system: NCI-H522 lung
[3] = system: HOP-62 NSCLC
[4] = system: OVCAR-3 ovarian
[5] = system: KM12 colon
[6] = system: NCI-H23 lung
[7] = system: BT-549 breast
[8] = system: SR leukemia
[9] = system: SF-268 CNS
[10] = system: MALME-3M melanoma
[11] = system: HCT-15 colon
[12] = system: RXF 393 renal
[13] = system: HOP-92 NSCLC
[14] = system: MDA-MB-435
[15] = system: HCT-116 colon
[16] = system: COLO 205 colon
[17] = system: SNB-19 CNS
[18] = system: NCI-H460 lung
[19] = system: SN12C renal
[20] = system: OVCAR-4 ovarian
[21] = system: SF-539 CNS
[22] = system: HS 578T breast
[23] = system: CAKI-1 renal
[24] = system: M14 melanoma
[25] = system: UACC-62 melanoma
[26] = system: MCF7 breast
[27] = system: OVCAR-8 ovarian
[28] = system: NCI/ADR-RES ovarian
[29] = system: UO-31 renal
[30] = system: SK-OV-3 ovarian
[31] = system: A498 renal
[32] = system: A549 NSCLC
[33] = system: 786-0 renal
[34] = system: MDA-MB-231 breast
[35] = system: DU-145 prostate
[36] = system: MOLT-4 leukemia
[37] = system: EKVX NSCLC
[38] = system: TK-10 renal
[39] = system: HCC-2998 colon
[40] = system: IGROV1 ovarian
[41] = system: SNB-75 CNS
[42] = system: SK-MEL-2 melanoma
[43] = system: UACC-257 melanoma
[44] = system: T-47D breast
[45] = system: CCRF-CEM leukemia
[46] = system: SF-295 CNS
[47] = system: OVCAR-5 ovarian
[48] = system: ACHN renal
[49] = system: U251 CNS
[50] = system: SW-620 colon
[51] = system: SK-MEL-5 melanoma
[52] = system: RPMI-8226 leukemia
[53] = system: NCI-H226 lung
[54] = system: K-562 leukemia
[55] = system: HT29 colon
[56] = system: PC-3 prostate
[57] = system: LOX IMVI melanoma
[58] = system: HL-60(TB) leukemia

## C#C[C@]1(O)CC[C@H]2[C@@H]3CC=C4c5sc(Nc6ccc(C)cn6)nc5CC[C@]4(C)[C@H]3CC[C@@]21C
[1]
  GI50: 254 nM
  TGI: 727 nM
[2]
  GI50: 2010 nM
  TGI: 4580 nM
[3]
  GI50: 1070 nM
  TGI: 4340 nM
[4]
  GI50: 1850 nM
  TGI: 6150 nM
[5]
  GI50: 1050 nM
  TGI: 4510 nM
[6]
  GI50: 1240 nM
  TGI: 5160 nM
[7]
  GI50: 566 nM
  TGI: 3050 nM
[8]
  GI50: 343 nM
[9]
  GI50: 1070 nM
  TGI: 10600 nM
[10]
  GI50: 559 nM
  TGI: 2420 nM
[11]
  GI50: 1000 nM
  TGI: 2740 nM
[12]
  GI50: 53.6 nM
  TGI: 261 nM
[13]
  GI50: 877 nM
  TGI: 4130 nM
[14]
  GI50: 715 nM
  TGI: 3670 nM
[15]
  GI50: 504 nM
  TGI: 2170 nM
[16]
  GI50: 1490 nM
  TGI: 3680 nM
[17]
  GI50: 1220 nM
  TGI: 4830 nM
[18]
  GI50: 652 nM
  TGI: 5290 nM
[19]
  GI50: 2520 nM
  TGI: 10500 nM
[20]
  GI50: 1900 nM
  TGI: 13800 nM
[21]
  GI50: 203 nM
  TGI: 646 nM
[22]
  GI50: 265 nM
  TGI: 986 nM
[23]
  GI50: 597 nM
  TGI: 4000 nM
[24]
  GI50: 536 nM
  TGI: 2550 nM
[25]
  GI50: 363 nM
  TGI: 1430 nM
[26]
  GI50: 402 nM
  TGI: 1920 nM
[27]
  GI50: 2020 nM
  TGI: > 27100 nM
[28]
  GI50: 1860 nM
  TGI: 6940 nM
[29]
  GI50: 378 nM
  TGI: 1620 nM
[30]
  GI50: 717 nM
  TGI: 3300 nM
[31]
  GI50: 376 nM
  TGI: 1120 nM
[32]
  GI50: 1350 nM
  TGI: 12300 nM
[33]
  GI50: 198 nM
  TGI: 610 nM
[34]
  GI50: 1280 nM
  TGI: 4000 nM
[35]
  GI50: 1840 nM
  TGI: 11500 nM
[36]
  GI50: 300 nM
[37]
  GI50: 994 nM
  TGI: 9920 nM
[38]
  GI50: 2550 nM
  TGI: 9900 nM
[39]
  GI50: 2230 nM
  TGI: 7260 nM
[40]
  GI50: 1750 nM
  TGI: 12900 nM
[41]
  GI50: 332 nM
  TGI: 3450 nM
[42]
  GI50: 741 nM
  TGI: 3230 nM
[43]
  GI50: 947 nM
  TGI: 3350 nM
[44]
  GI50: 1970 nM
  TGI: 12100 nM
[45]
  GI50: 431 nM
  TGI: 3300 nM
[46]
  GI50: 184 nM
  TGI: 411 nM
[47]
  GI50: 2130 nM
  TGI: 6760 nM
[48]
  GI50: 907 nM
  TGI: 11200 nM
[49]
  GI50: 537 nM
  TGI: 5770 nM
[50]
  GI50: 657 nM
  TGI: 2230 nM
[51]
  GI50: 1270 nM
  TGI: 2580 nM
[52]
  GI50: 199 nM
  TGI: 609 nM
[53]
  GI50: 2160 nM
  TGI: 8320 nM
[54]
  GI50: 408 nM
  TGI: > 100000 nM
[55]
  GI50: 1200 nM
  TGI: 3260 nM
[56]
  GI50: 379 nM
  TGI: 5080 nM

## C#CCOc1ccc(-c2csc(NC(=O)C=C)n2)cc1NS(=O)(=O)c1cccc2c(N(C)C)cccc12
[1]
  GI50: 1250 nM
  TGI: 3610 nM
[2]
  GI50: 806 nM
  TGI: 1630 nM
[3]
  GI50: 1640 nM
  TGI: 8040 nM
[57]
  GI50: 25.2 nM
  TGI: 668 nM
[5]
  GI50: 2210 nM
  TGI: 8270 nM
[6]
  GI50: 1790 nM
  TGI: 7670 nM
[7]
  GI50: 810 nM
  TGI: 1520 nM
[9]
  GI50: 2460 nM
  TGI: 11000 nM
[10]
  GI50: 1070 nM
  TGI: 3460 nM
[11]
  GI50: 900 nM
  TGI: 2160 nM
[12]
  GI50: 1120 nM
  TGI: 2070 nM
[13]
  GI50: 819 nM
  TGI: 3610 nM
[14]
  GI50: 1310 nM
  TGI: 3840 nM
[15]
  GI50: 800 nM
  TGI: 1570 nM
[16]
  GI50: 2190 nM
  TGI: 7970 nM
[17]
  GI50: 2250 nM
  TGI: 12100 nM
[18]
  GI50: 2110 nM
  TGI: 8520 nM
[19]
  GI50: 1300 nM
  TGI: 5020 nM
[20]
  GI50: 3000 nM
  TGI: 22600 nM
[21]
  GI50: 861 nM
  TGI: 1780 nM
[22]
  GI50: 1680 nM
  TGI: 22300 nM
[23]
  GI50: 1380 nM
  TGI: 5810 nM
[24]
  GI50: 1020 nM
  TGI: 2580 nM
[25]
  GI50: 1180 nM
  TGI: 6050 nM
[26]
  GI50: 1090 nM
  TGI: 5100 nM
[27]
  GI50: 930 nM
  TGI: 2020 nM
[28]
  GI50: 1450 nM
  TGI: 50000 nM
[29]
  GI50: 727 nM
  TGI: 1430 nM
[30]
  GI50: 7070 nM
  TGI: 15700 nM
[31]
  GI50: 1710 nM
  TGI: 6830 nM
[32]
  GI50: 2970 nM
  TGI: 13200 nM
[33]
  GI50: 909 nM
  TGI: 1940 nM
[34]
  GI50: 1790 nM
  TGI: 9420 nM
[35]
  GI50: 1540 nM
  TGI: 5250 nM
[36]
  GI50: 1180 nM
  TGI: 3830 nM
[37]
  GI50: 7920 nM
  TGI: 22600 nM
[38]
  GI50: 934 nM
  TGI: 2040 nM
[39]
  GI50: 3000 nM
  TGI: 9580 nM
[40]
  GI50: 1090 nM
  TGI: 2700 nM
[41]
  GI50: 862 nM
  TGI: 4600 nM
[42]
  GI50: 973 nM
  TGI: 2190 nM
[43]
  GI50: 2460 nM
  TGI: 10000 nM
[44]
  GI50: 1490 nM
  TGI: 6950 nM
[45]
  GI50: 312 nM
  TGI: 2650 nM
[46]
  GI50: 3810 nM
  TGI: 11500 nM
[47]
  GI50: 1470 nM
  TGI: 6180 nM
[48]
  GI50: 861 nM
  TGI: 1740 nM
[49]
  GI50: 2400 nM
  TGI: 8390 nM
[50]
  GI50: 848 nM
  TGI: 1750 nM
[51]
  GI50: 1680 nM
  TGI: 6280 nM
[52]
  GI50: 947 nM
  TGI: 2570 nM
[53]
  GI50: 1170 nM
  TGI: 3510 nM
[54]
  GI50: 1200 nM
  TGI: 3800 nM
[55]
  GI50: 838 nM
  TGI: 1670 nM
[58]
  GI50: 683 nM
  TGI: 2120 nM
[56]
  GI50: 1900 nM
  TGI: 8550 nM

## CC[C@]12C=CCN3CC[C@@]4(c5cc(NC(=O)COc6cc(O)c7c(=O)cc(-c8ccccc8)oc7c6)c(OC)cc5N(C)[C@H]4[C@@](O)(C(=O)OC)[C@@H]1OC(C)=O)[C@@H]32
[1]
  GI50: 1750 nM
  TGI: 3200 nM
[3]
  GI50: 1880 nM
  TGI: 3940 nM
[4]
  GI50: 2810 nM
  TGI: 7170 nM
[5]
  GI50: 2070 nM
  TGI: 5140 nM
[6]
  GI50: 1850 nM
  TGI: 3450 nM
[7]
  GI50: 1640 nM
  TGI: 3180 nM
[9]
  GI50: 1980 nM
  TGI: 4510 nM
[10]
  GI50: 1580 nM
  TGI: 2970 nM
[12]
  GI50: 1740 nM
  TGI: 3200 nM
[13]
  GI50: 1360 nM
  TGI: 2980 nM
[14]
  GI50: 1560 nM
  TGI: 3020 nM
[20]
  GI50: 1880 nM
  TGI: 3420 nM
[21]
  GI50: 1670 nM
  TGI: 3200 nM
[22]
  GI50: 1990 nM
  TGI: 4790 nM
[23]
  GI50: 1810 nM
  TGI: 4290 nM
[25]
  GI50: 1850 nM
  TGI: 3690 nM
[29]
  GI50: 1680 nM
  TGI: 3080 nM
[30]
  GI50: 2150 nM
  TGI: 4790 nM
[31]
  GI50: 1480 nM
  TGI: 3100 nM
[33]
  GI50: 1790 nM
  TGI: 3530 nM
[35]
  GI50: 2400 nM
  TGI: 5570 nM
[37]
  GI50: 2000 nM
  TGI: 4600 nM
[38]
  GI50: 2150 nM
  TGI: 4840 nM
[41]
  GI50: 1340 nM
  TGI: 3970 nM
[47]
  GI50: 1720 nM
  TGI: 3200 nM
[48]
  GI50: 1670 nM
  TGI: 3200 nM
[51]
  GI50: 1810 nM
  TGI: 3340 nM
[56]
  GI50: 1310 nM
  TGI: 2780 nM
